Patent publication US20250339569A1, “CARBONIC ANHYDRASE IX LIGANDS” (priority 2021, published 2025)
Like-named read-outs stand apart in the source and are kept apart here. Starred links: 1 amine or outer side, 2 acyl side, 3 side chain; linkers in the order of their positions; H or OH if unused. Positions of bridges follow the written chain, without caps; N, C: chain ends. Non-standard residues stand in square brackets, D forms with d. Residues, ends and D or L forms follow the SMILES beside them. *: point of attachment. NH(CH2)3NHDOTA = O=C(O)CN1CCN(CC(=O)O)CCN(CC(=O)NCCCN*)CCN(CC(=O)O)CC1; X3 = O=C(O)CN1CCN(CC(=O)O)CCN(CC(=O)NCCCOCCOCCOCCCN*)CCN(CC(=O)O)CC1; DOTA = O=C(O)CN1CCN(CC(=O)O)CCN(CC(=O)*)CCN(CC(=O)O)CC1; X15 = O=C(O)COCC(=O)Nc1cccc(C[C@H](N[*:1])C(=O)[*:2])c1; Phe(3-CF3) = N[C@@H](Cc1cccc(C(F)(F)F)c1)C(=O)O; Benzoyl(4-SO2NH2) = NS(=O)(=O)c1ccc(C(=O)*)cc1; X7 = O=C([C@H](Cc1cccc(N[*:3])c1)N[*:1])[*:2]; Propanoyl(3-SO2NH2) = NS(=O)(=O)CCC(=O)*; Phe(4-NH2) = Nc1ccc(C[C@H](N)C(=O)O)cc1; mXylylene = c1cc(C[*:1])cc(C[*:2])c1; X13 = O=C1NC2NC(=O)N(CC(=O)*)C2N1; Trx = NC[C@H]1CC[C@H](C(=O)O)CC1; X2 = O=C(CN1CCC(N[*:1])CC1)[*:2]; X1 = O=C(CN1CCN([*:1])CC1)[*:2]; Suc = O=C(CCC(=O)[*:2])[*:1]; Dap = NC[C@H](N)C(=O)O; Sar = CNCC(=O)O

Key:
[1] = target: T1, human carbonic anhydrase IX (hCAIX-Fc) (Homo sapiens, UniProt Q16790); assay: Surface plasmon resonance assay with hCAIX-Fc; format: binding; conditions: 25° C.; for t1/2 category (activity): SPR dissociation half-life, hCAIX-Fc; for Kd: SPR, hCAIX-Fc captured, read-out: pKD category (activity) (converted)
T1 construct: purchased SinoBliological (Sino Biological) 10107-H02H
Description: Surface plasmon resonance (SPR) studies were performed using a Biacore™ T200 SPR system (GE Healthcare Life Sciences). Briefly, polarized light is directed towards a gold-labeled sensor surface, and minimum intensity reflected light is detected. The angle of reflected light changes as molecules bind and dissociate.
Fc-fusion protein of human carbonic anhydrase IX (hCAIX-Fc, SinoBliological, Cat #10107-H02H) was captured on a Fc-capture chip (Biacore™ CM5 sensor chip coated with ˜300 RU of an Fc-binding peptide). Recombinant carbonic anydrase was diluted in Running Buffer (PBST, 0.1% DMSO) to a final concentration 100 or 200 nM and than flushed over the Fc-capture chip to immobilized ˜1000 RUs.
Stock solutions of test compounds were prepared by dissolving each compound in DMSO. DMSO stock solution were diluted 1:1000 in Running Buffer without DMSO. Further sequencial dilutions were made with Running Buffer containing 0.1% DMSO. SPR binding analyses were performed in Single Cycle Kinetic (SCK) mode at 25° C. Flow cell coated with the Fc-binding peptide only served as reference flowcell. After each SCK run, carbonic andydrase IX was removed with 10 mM glycine buffer, pH 1.5.
In between every three SCK measurements, a blank run with Running Buffer instead of test compound was included to correct for baseline drifts (double blanking methods).
Table 11 describes the protocol steps for Fc-fusion target capturing and assessment of the binding kinetics.
For each test compound, SPR raw data in the form of resonance units (RU) were plotted as sensorgrams using the Biacore™ T200 control software. The signal from the blank sensorgram was subtracted from that of the test compound sensorgram (blank corrected). The blank corrected sensorgram was corrected for baseline drift by subtracting the sensorgram of a SCK run without the test compound (running buffer only). The association rate (kon), dissociation rate (koff), dissociation constant (KD), and t1/2 were calculated from Blank-normalized SPR data using the 1:1 Langmuir binding model from the Biacore™ T200 evaluation software. Raw data and fit results were imported as text files in IDBS. The pKD value (negative decadic logarithm of dissociation constant) was calculated in the IDBS excel template.

[2] = target: T2, CAIX-expressing human HT-29 colorectal cancer cells (Homo sapiens, UniProt Q16790); assay: FACS binding assay (IC50 determination, competition with tracer 3BP-2776 or 3BP-4149); conditions: 4° C., 1 hour, read-out: pIC50 category (activity) (converted)
T2 construct: CAIX-expressing human HT-29 colorectal cancer cells; host or cells: HT-29 human colorectal cancer cells
In short: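 HT-29 cells in FACS buffer (PBS, 1% FCS) at 500.000 cells/ml were exposed to compounds competing with a labelled tracer, with biotinylated compounds detected by 1 μg/mL APC-streptavidin for 30 min on ice. APC/Cy5 median fluorescence was read by flow cytometry and IC50 derived by 4PL fit.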

[3] = FACS binding assay, HT-29 cells, competition with tracer 3BP-4149 (3 nM, Cy5-labeled)
[4] = FACS binding assay, HT-29 cells, competition with tracer 3BP-2776 (10 nM, biotin-labeled)
[5] = FACS competition on HT-29 cells, Tracer ID 3BP-2776 (10 nM, biotin-labeled)

Compound	t1/2 category (activity) [1]	Kd [1] [µM]	IC50 [2, 3] [µM]	IC50 [2, 4] [µM]	IC50 [2, 5] [µM]
CC(C)C[C@@H]1NC(=O)[C@H](Cc2ccc(NC(=O)c3ccc(S(N)(=O)=O)cc3)cc2)NC(=O)[C@H](CC(=O)O)NC(=O)[C@H]2CCCN2C(=O)[C@H](CCC(=O)O)NC(=O)[C@@H](NC(=O)[C@H](Cc2ccc(O)cc2)NC(=O)[C@@H](NC(=O)CN2CCC(NC(=O)CN3CCN(CC(=O)O)CCN(CC(=O)O)CCN(CC(=O)O)CC3)CC2)C(C)C)CSCc2cccc(c2)CSC[C@@H](C(N)=O)NC(=O)[C@H](CO)NC(=O)[C@H](Cc2c[nH]c3ccccc23)NC(=O)[C@H]([C@@H](C)O)NC1=O [3BP-4398] ({DOTA}-[X2]VYCE[dP]D[Phe(4-NH2)](Benzoyl(4-SO2NH2))LTWSC-NH2; linker 4-13 via mXylylene)	C (t1/2 between 2.1 and 5.0 minutes)	< 0.01	0.01 to 0.0794	–	–
CC(C)C[C@@H]1NC(=O)[C@H](Cc2ccc(NC(=O)CCS(N)(=O)=O)cc2)NC(=O)[C@H](CC(=O)O)NC(=O)[C@H]2CCCN2C(=O)[C@H](CCC(=O)O)NC(=O)[C@@H]2CSCc3cccc(c3)CSC[C@@H](C(N)=O)NC(=O)[C@H](CNC(=O)CC[C@H](NC(=O)CN3CCN(C(=O)CN4CCN(CC(=O)O)CCN(CC(=O)O)CCN(CC(=O)O)CC4)CC3)C(=O)N2)NC(=O)[C@H](Cc2c[nH]c3ccccc23)NC(=O)[C@H]([C@@H](C)O)NC1=O [3BP-4504] ({DOTA}-[X1]ECE[dP]D[Phe(4-NH2)](Propanoyl(3-SO2NH2))LTW[Dap]C-NH2; lactam 2-11; linker 3-12 via mXylylene)	A (t1/2>15.0 minutes)	< 0.01	–	< 0.01	–
CC(C)C[C@@H]1NC(=O)[C@H](Cc2c[nH]c3ccccc23)NC(=O)[C@H](CC(=O)O)NC(=O)CN(C)C(=O)[C@H](CCC(=O)O)NC(=O)[C@@H](NC(=O)[C@H](Cc2ccc(O)cc2)NC(=O)[C@@H](NC(=O)CCC(=O)NCCCOCCOCCOCCCNC(=O)CN2CCN(CC(=O)O)CCN(CC(=O)O)CCN(CC(=O)O)CC2)C(C)C)CSCc2cccc(c2)CSC[C@@H](C(N)=O)NC(=O)[C@H](CCC(N)=O)NC(=O)[C@H](Cc2c[nH]c3ccccc23)NC(=O)[C@H]([C@@H](C)O)NC1=O [3BP-3271] ({X3-Suc}-VYCE[Sar]DWLTWQC-NH2; linker 3-12 via mXylylene)	C (t1/2 between 2.1 and 5.0 minutes)	< 0.01	–	–	< 0.01
CC(=O)N[C@@H](CO)C(=O)N[C@@H](Cc1ccc(O)cc1)C(=O)N[C@H]1CSCc2cccc(c2)CSC[C@@H](C(N)=O)NC(=O)[C@H](CCC(=O)NCCCNC(=O)CN2CCN(CC(=O)O)CCN(CC(=O)O)CCN(CC(=O)O)CC2)NC(=O)[C@H](Cc2c[nH]c3ccccc23)NC(=O)[C@H]([C@@H](C)O)NC(=O)[C@H](CC(C)C)NC(=O)[C@H](Cc2c[nH]c3ccccc23)NC(=O)[C@H](CC(=O)O)NC(=O)[C@H]2CCCN2C(=O)[C@H](CCC(=O)O)NC1=O [3BP-3873] (Ac-SYCE[dP]DWLTWE(NH(CH2)3NHDOTA)C-NH2; linker 3-12 via mXylylene)	B (t1/2 between 5.1 and 15.0 minutes)	< 0.01	–	–	< 0.01

Continued, values first:

t1/2 category (activity) [1]	Kd [1] [µM]	IC50 [2, 3] [µM]	IC50 [2, 4] [µM]	IC50 [2, 5] [µM]	Compound
B (t1/2 between 5.1 and 15.0 minutes)	< 0.01	< 0.01	–	–	CC(C)C[C@@H]1NC(=O)[C@H](Cc2cccc(C(F)(F)F)c2)NC(=O)[C@H](CC(=O)O)NC(=O)[C@H]2CCCN2C(=O)[C@H](CCC(=O)O)NC(=O)[C@@H]2CSCc3cccc(c3)CSC[C@@H](C(N)=O)NC(=O)[C@H](CNC(=O)C[C@H](NC(=O)[C@@H](NC(=O)CN3CCC(NC(=O)CN4CCN(CC(=O)O)CCN(CC(=O)O)CCN(CC(=O)O)CC4)CC3)C(C)C)C(=O)N2)NC(=O)[C@H](Cc2c[nH]c3ccccc23)NC(=O)[C@H]([C@@H](C)O)NC1=O [3BP-4440] ({DOTA}-[X2]VDCE[dP]D[Phe(3-CF3)]LTW[Dap]C-NH2; lactam 3-12; linker 4-13 via mXylylene)
C (t1/2 between 2.1 and 5.0 minutes)	< 0.01	0.01 to 0.0794	–	–	CC(C)C[C@@H]1NC(=O)[C@H](Cc2cccc(NC(=O)CN3C(=O)NC4NC(=O)NC43)c2)NC(=O)[C@H](CC(=O)O)NC(=O)[C@H]2CCCN2C(=O)[C@H](CCC(=O)O)NC(=O)[C@@H](NC(=O)[C@H](Cc2ccc(O)cc2)NC(=O)[C@@H](NC(=O)CN2CCC(NC(=O)CN3CCN(CC(=O)O)CCN(CC(=O)O)CCN(CC(=O)O)CC3)CC2)C(C)C)CSCc2cccc(c2)CSC[C@@H](C(N)=O)NC(=O)[C@H](CO)NC(=O)[C@H](Cc2c[nH]c3ccccc23)NC(=O)[C@H]([C@@H](C)O)NC1=O (stereo partly drawn) [3BP-4341] ({DOTA}-[X2]VYCE[dP]D[X7](X13)LTWSC-NH2; linker 4-13 via mXylylene)
B (t1/2 between 5.1 and 15.0 minutes)	< 0.01	–	–	< 0.01	CC(C)C[C@@H]1NC(=O)[C@H](Cc2c[nH]c3ccccc23)NC(=O)[C@H](CC(=O)O)NC(=O)[C@H]2CCCN2C(=O)[C@H](CCC(=O)O)NC(=O)[C@@H](NC(=O)[C@H](Cc2ccc(O)cc2)NC(=O)[C@H]2CC[C@H](CNC(=O)CN3CCN(CC(=O)O)CCN(CC(=O)O)CCN(CC(=O)O)CC3)CC2)CSCc2cccc(c2)CSC[C@@H](C(N)=O)NC(=O)[C@H](CO)NC(=O)[C@H](Cc2c[nH]c3ccccc23)NC(=O)[C@H]([C@@H](C)O)NC1=O [3BP-3868] ({DOTA-Trx}-YCE[dP]DWLTWSC-NH2; linker 2-11 via mXylylene)
C (t1/2 between 2.1 and 5.0 minutes)	< 0.01	0.01 to 0.0794	–	–	CC(C)C[C@@H]1NC(=O)[C@H](Cc2cccc(NC(=O)COCC(=O)O)c2)NC(=O)[C@H](CC(=O)O)NC(=O)[C@H]2CCCN2C(=O)[C@H](CCC(=O)O)NC(=O)[C@@H](NC(=O)[C@H](Cc2ccc(O)cc2)NC(=O)[C@@H](NC(=O)CN2CCC(NC(=O)CN3CCN(CC(=O)O)CCN(CC(=O)O)CCN(CC(=O)O)CC3)CC2)C(C)C)CSCc2cccc(c2)CSC[C@@H](C(N)=O)NC(=O)[C@H](CO)NC(=O)[C@H](Cc2c[nH]c3ccccc23)NC(=O)[C@H]([C@@H](C)O)NC1=O [3BP-4368] ({DOTA}-[X2]VYCE[dP]D[X15]LTWSC-NH2; linker 4-13 via mXylylene)
C (t1/2 between 2.1 and 5.0 minutes)	< 0.01	0.01 to 0.0794	–	–	CC(C)C[C@@H]1NC(=O)[C@H](Cc2c[nH]c3ccccc23)NC(=O)[C@H](CC(=O)O)NC(=O)[C@H]2CCCN2C(=O)[C@H](CCC(=O)O)NC(=O)[C@@H](NC(=O)[C@H](Cc2ccc(O)cc2)NC(=O)CN2CCN(C(=O)CN3CCN(CC(=O)O)CCN(CC(=O)O)CCN(CC(=O)O)CC3)CC2)CSCc2cccc(c2)CSC[C@@H](C(N)=O)NC(=O)[C@H](CO)NC(=O)[C@H](Cc2c[nH]c3ccccc23)NC(=O)[C@H]([C@@H](C)O)NC1=O [3BP-4446] ({DOTA}-[X1]YCE[dP]DWLTWSC-NH2; linker 3-12 via mXylylene)
B (t1/2 between 5.1 and 15.0 minutes)	< 0.01	–	< 0.01	–	CC(C)C[C@@H]1NC(=O)[C@H](Cc2cccc(C(F)(F)F)c2)NC(=O)[C@H](CC(=O)O)NC(=O)[C@H]2CCCN2C(=O)[C@H](CCC(=O)O)NC(=O)[C@@H](NC(=O)[C@H](Cc2ccc(O)cc2)NC(=O)[C@@H](NC(=O)CN2CCC(NC(=O)CN3CCN(CC(=O)O)CCN(CC(=O)O)CCN(CC(=O)O)CC3)CC2)C(C)C)CSCc2cccc(c2)CSC[C@@H](C(N)=O)NC(=O)[C@H](CO)NC(=O)[C@H](Cc2c[nH]c3ccccc23)NC(=O)[C@H]([C@@H](C)O)NC1=O [3BP-4135] ({DOTA}-[X2]VYCE[dP]D[Phe(3-CF3)]LTWSC-NH2; linker 4-13 via mXylylene)
